According to ChEMBL document CHEMBL3120149, “A multiple free-radical scavenging (MULTIS) study on the antioxidant capacity of a neuroprotective drug, edaravone as compared with uric acid, glutathione, and trolox” (Bioorg Med Chem Lett, 2014):

Legend:
Format in all cases: functional
[1] = Antioxidant activity assessed as riboflavin/EDTA-induced superoxide anion radical scavenging activity by ESR spin trapping method
[2] = Antioxidant activity assessed as t-butylhyroperoxide-induced alkylperoxyl radical scavenging activity by ESR spin trapping method relative to CYPMPO
[3] = Antioxidant activity assessed as rosebengal-induced singlet oxygen radical scavenging activity by ESR spin trapping method
[4] = Antioxidant activity assessed as t-butylhyroperoxide-induced alkylperoxyl radical scavenging activity by ESR spin trapping method
[5] = Antioxidant activity assessed as riboflavin/EDTA-induced superoxide anion radical scavenging activity by ESR spin trapping method relative to CYPMPO
[6] = Antioxidant activity assessed as H2O2-induced hydroxyl radical scavenging activity by ESR spin trapping method relative to CYPMPO
[7] = Antioxidant activity assessed as AAPH-induced alkoxyl radical scavenging activity by ESR spin trapping method
[8] = Antioxidant activity assessed as AAPH-induced alkoxyl radical scavenging activity by ESR spin trapping method relative to CYPMPO
[9] = Antioxidant activity assessed as H2O2-induced hydroxyl radical scavenging activity by ESR spin trapping method
[10] = Antioxidant activity assessed as DMSO/H2O2-induced methyl radical scavenging activity by ESR spin trapping method
[11] = Antioxidant activity assessed as DMSO/H2O2-induced methyl radical scavenging activity by ESR spin trapping method relative to DMPO
[12] = Antioxidant activity assessed as rosebengal-induced singlet oxygen radical scavenging activity by ESR spin trapping method relative to 4-OH-TEMP
[13] = Antioxidant activity assessed as hydroxyl radical scavenging activity
[14] = Antioxidant activity assessed as DMPO/H2O2-induced hydroxyl radical scavenging activity by fast-flow EPR technique

Q: With `Oc1nc(O)c2nc(O)[nH]c2n1` as the compound, how does the K [1] read?
A: 10.7 ×10³ /M/s

Q: And the Ratio [2]?
A: 0

Q: And the K [3]?
A: 2.31 ×10⁶ /M/s

Q: What about the K [4] of the same compound?
A: 0 M⁻¹ s⁻¹

Q: What about the Ratio [5] of the same compound?
A: 222

Q: What about the Ratio [6] of the same compound?
A: 0.894

Q: And the K [7]?
A: 9.9 ×10⁶ /M/s

Q: And the Ratio [8]?
A: 436

Q: And the K [9]?
A: 9.3 ×10⁹ /M/s

Q: And the K [10]?
A: 0 M⁻¹ s⁻¹

Q: And the Ratio [11]?
A: 0

Q: What about the Ratio [12] of the same compound?
A: 25.7

Q: Which K [9] does the source give for `CC1(C)CCC=[N+]1[O-]` here?
A: 2.8 ×10⁹ /M/s

Q: And the K [10]?
A: 1.4 ×10⁷ /M/s

Q: With `N[C@@H](CCC(=O)N[C@@H](CS)C(=O)NCC(=O)O)C(=O)O` as the compound, how does the K [1] read?
A: 1.12 ×10³ /M/s

Q: What about the Ratio [2] of the same compound?
A: 4.09

Q: What about the K [3] of the same compound?
A: 939 ×10⁶ /M/s

Q: And the Ratio [5]?
A: 23.3

Q: And the Ratio [6]?
A: 1.59

Q: And the K [7]?
A: 2.73 ×10⁶ /M/s

Q: What about the Ratio [8] of the same compound?
A: 121

Q: And the K [9]?
A: 16.5 ×10⁹ /M/s

Q: What about the K [10] of the same compound?
A: 1.99 ×10⁶ /M/s

Q: What about the Ratio [11] of the same compound?
A: 0.142

Q: What about the Ratio [12] of the same compound?
A: 10400

Q: What does the source list for `Cc1c(C)c2c(c(C)c1O)CCC(C)(C(=O)O)O2` (stereo not given)?
A: K [1]: 2.1 ×10³ /M/s; Ratio [2]: 0; K [3]: 62.2 ×10⁶ /M/s; K [4]: 0 M⁻¹ s⁻¹; Ratio [5]: 43.8; Ratio [6]: 23.8; K [7]: 4.83 ×10⁶ /M/s; Ratio [8]: 214; K [9]: 24.8 ×10⁹ /M/s; K [10]: 4.72 ×10⁶ /M/s; Ratio [11]: 0.337; Ratio [12]: 692

Q: With `CC1=NN(c2ccccc2)C(=O)C1` as the compound, how does the K [1] read?
A: 2.93 ×10³ /M/s

Q: And the Ratio [2]?
A: 39

Q: What about the K [3] of the same compound?
A: 27.5 ×10⁶ /M/s

Q: And the K [13]?
A: 1.4 ×10¹⁰ /M/s

Q: What about the Ratio [5] of the same compound?
A: 61.1

Q: What about the Ratio [6] of the same compound?
A: 28.7

Q: And the K [14]?
A: 3 ×10¹⁰ /M/s

Q: And the K [7]?
A: 3.16 ×10⁶ /M/s

Q: What about the Ratio [8] of the same compound?
A: 139

Q: What about the K [9] of the same compound?
A: 298 ×10⁹ /M/s

Q: And the K [10]?
A: 30 ×10⁶ /M/s

Q: And the Ratio [11]?
A: 2.14

Q: What about the Ratio [12] of the same compound?
A: 306

Q: Which results are given for `CC1(C)COP(=O)(C2(C)CCC=[N+]2[O-])OC1` (stereo not given)?
A: K [1]: 48 M⁻¹ s⁻¹; K [7]: 2.27 ×10⁴ /M/s

Q: With `C[C@@H]1O[C@@H](OC[C@H]2O[C@@H](Oc3c(-c4ccc(O)c(O)c4)oc4cc(O)cc(O)c4c3=O)[C@H](O)[C@@H](O)[C@@H]2O)[C@H](O)[C@H](O)[C@H]1O` as the compound, how does the K [1] read?
A: 1.5 ×10⁴ /M/s

Q: What about the K [3] of the same compound?
A: 3.5 ×10⁸ /M/s

Q: And the K [7]?
A: 6.9 ×10⁶ /M/s
